Assay [1] has as its target TYK2 (Homo sapiens (Human), UniProt P29597). The experiment in a line: Tyk2 activity inhibition assay (radioactive kinase assay / Caliper assay). The class given is biochemical. Put shortly: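 Two formats were used. Caliper off-chip mobility shift read phosphorylated peptide 30 (3 uM) after 25 min at 28° C with 9.75 nM TYK2 and ATP at 16 uM or 1 mM. Radioactive assay: 10 μM 33P-ATP, 20 μM peptide, 120 min room temp, P81 filter counting.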

Assay [2] has as its target JAK2 (Homo sapiens (Human), UniProt O60674). The experiment in a line: JAK2 activity inhibition assay (radioactive kinase assay / Caliper assay). The format is biochemical. To be noted: read-out: JAK2 Ki. Put shortly: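 Reaction ran 25 min at 28° C after adding peptide/ATP mix (10 mM MgCl2) to compound and enzyme in HEPES pH 7.5 buffer with Brij-35, Triton and EGTA. EDTA stop, then microfluidic off-chip separation quantified phosphorylated peptide.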

As a reminder, the Ki is a dissociation constant, usually derived from enzyme kinetics or from competition with a known ligand.

JAK2, sequence (O60674 whole entry): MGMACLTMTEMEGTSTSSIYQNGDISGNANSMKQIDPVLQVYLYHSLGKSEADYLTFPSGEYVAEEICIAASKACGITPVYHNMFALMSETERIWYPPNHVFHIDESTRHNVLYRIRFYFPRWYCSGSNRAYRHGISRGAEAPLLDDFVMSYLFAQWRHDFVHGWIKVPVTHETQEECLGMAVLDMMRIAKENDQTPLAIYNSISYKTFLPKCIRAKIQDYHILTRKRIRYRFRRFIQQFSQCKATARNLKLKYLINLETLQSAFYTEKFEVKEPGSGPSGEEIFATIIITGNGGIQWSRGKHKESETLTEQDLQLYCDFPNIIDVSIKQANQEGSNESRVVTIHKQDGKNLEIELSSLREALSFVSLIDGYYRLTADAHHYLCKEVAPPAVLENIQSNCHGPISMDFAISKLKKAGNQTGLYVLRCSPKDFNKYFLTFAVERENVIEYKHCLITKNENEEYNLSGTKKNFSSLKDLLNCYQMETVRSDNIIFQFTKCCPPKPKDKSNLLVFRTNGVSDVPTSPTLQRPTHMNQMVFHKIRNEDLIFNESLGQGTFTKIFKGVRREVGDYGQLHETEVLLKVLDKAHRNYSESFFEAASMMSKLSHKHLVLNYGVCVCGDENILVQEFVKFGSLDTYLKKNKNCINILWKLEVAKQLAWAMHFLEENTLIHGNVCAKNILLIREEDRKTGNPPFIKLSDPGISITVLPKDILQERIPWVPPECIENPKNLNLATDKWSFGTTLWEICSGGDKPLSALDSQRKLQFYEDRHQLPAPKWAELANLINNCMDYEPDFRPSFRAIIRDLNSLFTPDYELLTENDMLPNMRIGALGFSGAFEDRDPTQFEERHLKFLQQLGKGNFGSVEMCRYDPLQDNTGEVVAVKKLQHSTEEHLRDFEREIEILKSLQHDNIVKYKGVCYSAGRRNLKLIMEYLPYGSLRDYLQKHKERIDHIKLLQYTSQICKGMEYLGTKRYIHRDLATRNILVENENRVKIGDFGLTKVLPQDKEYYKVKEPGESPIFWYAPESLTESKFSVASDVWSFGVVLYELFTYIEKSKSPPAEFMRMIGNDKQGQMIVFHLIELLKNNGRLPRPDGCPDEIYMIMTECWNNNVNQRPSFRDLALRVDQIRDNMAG
TYK2, sequence (P29597 whole entry): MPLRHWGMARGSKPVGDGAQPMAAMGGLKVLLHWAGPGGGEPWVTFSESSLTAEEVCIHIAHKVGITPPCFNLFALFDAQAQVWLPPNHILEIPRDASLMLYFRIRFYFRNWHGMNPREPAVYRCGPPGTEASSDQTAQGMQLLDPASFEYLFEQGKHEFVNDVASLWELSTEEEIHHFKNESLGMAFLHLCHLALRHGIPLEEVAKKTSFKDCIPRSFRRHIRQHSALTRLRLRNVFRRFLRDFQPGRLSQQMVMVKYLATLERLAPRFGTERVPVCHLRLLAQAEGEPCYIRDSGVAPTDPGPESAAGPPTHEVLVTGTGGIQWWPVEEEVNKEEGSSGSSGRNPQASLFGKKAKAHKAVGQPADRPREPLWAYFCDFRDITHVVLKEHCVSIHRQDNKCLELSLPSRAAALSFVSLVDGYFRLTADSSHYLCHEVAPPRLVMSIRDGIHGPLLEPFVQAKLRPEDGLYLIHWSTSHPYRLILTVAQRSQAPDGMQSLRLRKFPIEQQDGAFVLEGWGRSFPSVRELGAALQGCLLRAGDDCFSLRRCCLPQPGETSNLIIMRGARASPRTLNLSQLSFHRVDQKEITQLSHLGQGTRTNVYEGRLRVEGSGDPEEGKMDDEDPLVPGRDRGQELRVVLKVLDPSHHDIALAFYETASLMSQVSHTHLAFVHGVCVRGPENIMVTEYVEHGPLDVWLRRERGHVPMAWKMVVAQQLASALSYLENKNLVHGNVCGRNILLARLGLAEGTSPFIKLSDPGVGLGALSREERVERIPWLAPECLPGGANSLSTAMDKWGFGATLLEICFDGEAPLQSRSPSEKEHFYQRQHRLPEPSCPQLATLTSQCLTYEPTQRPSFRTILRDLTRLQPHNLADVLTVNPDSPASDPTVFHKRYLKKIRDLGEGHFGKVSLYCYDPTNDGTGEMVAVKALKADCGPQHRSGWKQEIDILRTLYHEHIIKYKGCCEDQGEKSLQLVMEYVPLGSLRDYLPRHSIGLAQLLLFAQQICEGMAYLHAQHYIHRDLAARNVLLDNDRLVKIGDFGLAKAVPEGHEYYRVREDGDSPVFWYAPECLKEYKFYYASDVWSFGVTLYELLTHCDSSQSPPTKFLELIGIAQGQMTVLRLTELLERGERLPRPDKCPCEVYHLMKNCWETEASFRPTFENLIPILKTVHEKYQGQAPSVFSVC

As for `O=C1NC(=O)C(c2ccc(Nc3nc(-c4c(F)cccc4F)nc4c3C(=O)NC4)cc2)S1` (stereo not shown) [Compound I-192, 5-(4-((2-(2,6-difluorophenyl)-5-oxo-6,7-dihydro-5H-pyrrolo[3,4-d]pyrimidin-4-yl)amino)phenyl)thiazolidine-2,4-dione], the Ki in assay [1] is below 10 nM; in assay [2], 100 to 1000 nM.

For the molecule `CN(CC(C)(C)O)C(=O)Cc1ccc(Nc2nc(-c3c(F)cccc3F)nc3c2C(=O)NC3)cc1` [Compound I-193, 2-(4-((2-(2,6-difluorophenyl)-5-oxo-6,7-dihydro-5H-pyrrolo[3,4-d]pyrimidin-4-yl)amino)phenyl)-N-(2-hydroxy-2-methylpropyl)-N-methylacetamide], the Ki in assay [1] was below 10 nM; in assay [2], 100 to 1000 nM.

As to `O=C1NCc2nc(-c3c(F)cccc3F)nc(Nc3ccc(CC(=O)N4CCOC[C@@H]4C(=O)O)cc3)c21` [Compound I-194, (R)-4-(2-(4-((2-(2,6-difluorophenyl)-5-oxo-6,7-dihydro-5H-pyrrolo[3,4-d]pyrimidin-4-yl)amino)phenyl)acetyl)morpholine-3-carboxylic Acid], the Ki in assay [1] was 10 to 100 nM; in assay [2], 100 to 1000 nM.

Regarding `CC(C(=O)N1CCCCC1)c1ccc(Nc2nc(-c3c(F)cccc3F)nc3c2C(=O)NC3)cc1` (stereo not shown) [Compound I-198, 2-(2,6-difluorophenyl)-4-((4-(1-oxo-1-(piperidin-1-yl)propan-2-yl)phenyl)amino)-6,7-dihydro-5H-pyrrolo[3,4-d]pyrimidin-5-one], the Ki was below 10 nM in assay [1] and 100 to 1000 nM in assay [2].

For `CCNC(=O)Cc1ccc(Nc2cc(-c3c(F)cccc3Cl)nc3c2C(=O)NC3)nc1` [Compound I-199, 2-(6-((2-(2-chloro-6-fluorophenyl)-5-oxo-6,7-dihydro-5H-pyrrolo[3,4-b]pyridin-4-yl)amino)pyridin-3-yl)-N-ethylacetamide], the Ki was below 10 nM in assay [1] and 10 to 100 nM in assay [2].

For `COC(=O)Cc1ccc(Nc2cc(-c3c(F)cccc3Cl)nc3c2C(=O)NC3)nc1` [Compound I-200, methyl 2-(6-((2-(2-chloro-6-fluorophenyl)-5-oxo-6,7-dihydro-5H-pyrrolo[3,4-b]pyridin-4-yl)amino)pyridin-3-yl)acetate], the inhibitory constant (Ki) in assay [1] was below 10 nM; in assay [2], 10 to 100 nM.

On to `COC(=O)C1COCCN1C(=O)Cc1ccc(Nc2nc(-c3c(F)cccc3F)nc3c2C(=O)NC3)cc1` (stereo not shown) [Compound I-201, methyl 4-(2-(4-((2-(2,6-difluorophenyl)-5-oxo-6,7-dihydro-5H-pyrrolo[3,4-d]pyrimidin-4-yl)amino)phenyl)acetyl)morpholine-3-carboxylate], for which the values for the Ki in assay [1] and in assay [2] were below 10 nM and 100 to 1000 nM, respectively.

Regarding `O=C1NCc2nc(-c3c(F)cccc3F)nc(Nc3ccc(CC(=O)N4CCOCC4C(=O)O)cc3)c21` (stereo not shown) [Compound I-202, 4-(2-(4-((2-(2,6-difluorophenyl)-5-oxo-6,7-dihydro-5H-pyrrolo-[3,4-d]pyrimidin-4-yl)amino)phenyl)acetyl)morpholine-3-carboxylic Acid], the Ki is below 10 nM in assay [1] and 100 to 1000 nM in assay [2].

For `C=C(C(=O)NCC)c1ccc(Nc2nc(-c3c(F)cccc3F)nc3c2C(=O)NC3)cc1` [Compound I-203, 2-(4-((2-(2,6-difluorophenyl)-5-oxo-6,7-dihydro-5H-pyrrolo[3,4-d]pyrimidin-4-yl)amino)phenyl)-N-ethylacrylamide], the Ki was in the range of 10 to 100 nM in assay [1] and 100 to 1000 nM in assay [2].

`O=C1NCc2nc(-c3c(F)cccc3Cl)cc(Nc3ccc(N4CCCC4)cn3)c21` [Compound I-204, 2-(2-chloro-6-fluorophenyl)-4-((5-(pyrrolidin-1-yl)pyridin-2-yl)amino)-6,7-dihydro-5H-pyrrolo[3,4-b]pyridin-5-one]: the Ki is below 10 nM in assay [1] and above 1000 nM in assay [2].

In the case of `CCNC(=O)Cc1ccc(Nc2nc(-c3c(F)cncc3F)nc3c2C(=O)NC3)cc1` [Compound I-208, 2-(4-((2-(3,5-difluoropyridin-4-yl)-5-oxo-6,7-dihydro-5H-pyrrolo[3,4-d]pyrimidin-4-yl)amino)phenyl)-N-ethylacetamide], the Ki in assay [1] is 100 to 1000 nM; in assay [2], above 1000 nM.

Source of the values: patent US10196390B2, “TYK2 inhibitors and uses thereof” (Nimbus Lakshmi, Inc., priority 2014, dated 2019).
